Measured values taken from ChEMBL document CHEMBL5465560, “Selectivity Literature for EUbOPEN Chemogenomic Library” (2024).
pIC50: −log10 of the molar value.

Assays:
[1] = target: T1, Ephrin type-A receptor 3 (Homo sapiens) (UniProt P29320); experiment: Selectivity interaction (KinomeScan (DiscoverX)) EUB0000229b EPHA3; conditions: at 10 µM
T1 sequence (whole entry): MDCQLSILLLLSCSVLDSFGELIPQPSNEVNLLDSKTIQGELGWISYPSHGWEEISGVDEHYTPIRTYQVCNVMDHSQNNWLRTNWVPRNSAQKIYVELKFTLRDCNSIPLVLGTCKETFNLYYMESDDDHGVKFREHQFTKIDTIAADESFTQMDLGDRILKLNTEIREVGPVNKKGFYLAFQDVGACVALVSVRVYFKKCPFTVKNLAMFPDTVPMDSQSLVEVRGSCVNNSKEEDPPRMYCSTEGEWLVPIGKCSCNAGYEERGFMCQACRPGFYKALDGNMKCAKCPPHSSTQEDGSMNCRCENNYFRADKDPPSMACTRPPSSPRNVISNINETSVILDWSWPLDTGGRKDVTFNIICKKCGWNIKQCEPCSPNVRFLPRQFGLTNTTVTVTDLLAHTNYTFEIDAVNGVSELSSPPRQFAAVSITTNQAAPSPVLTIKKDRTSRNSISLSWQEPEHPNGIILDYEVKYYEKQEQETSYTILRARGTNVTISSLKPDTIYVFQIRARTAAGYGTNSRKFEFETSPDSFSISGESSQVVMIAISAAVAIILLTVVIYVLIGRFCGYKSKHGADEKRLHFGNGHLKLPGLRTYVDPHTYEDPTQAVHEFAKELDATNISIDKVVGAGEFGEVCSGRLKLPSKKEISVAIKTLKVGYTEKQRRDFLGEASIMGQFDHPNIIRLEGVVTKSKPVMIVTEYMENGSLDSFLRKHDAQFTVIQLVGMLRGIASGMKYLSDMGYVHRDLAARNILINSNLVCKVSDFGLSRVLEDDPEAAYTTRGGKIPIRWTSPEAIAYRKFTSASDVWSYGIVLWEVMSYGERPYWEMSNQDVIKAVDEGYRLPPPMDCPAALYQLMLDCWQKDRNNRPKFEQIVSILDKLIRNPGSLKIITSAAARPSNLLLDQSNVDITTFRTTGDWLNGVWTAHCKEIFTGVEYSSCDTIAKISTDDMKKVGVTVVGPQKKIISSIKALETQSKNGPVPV

[2] = target: Serine/threonine-protein kinase Nek6 (Homo sapiens) (UniProt Q9HC98); experiment: Selectivity interaction (KinomeScan (DiscoverX)) EUB0000092b NEK6; conditions: at 10 µM
Serine/threonine-protein kinase Nek6 (Homo sapiens), sequence (Q9HC98 whole entry): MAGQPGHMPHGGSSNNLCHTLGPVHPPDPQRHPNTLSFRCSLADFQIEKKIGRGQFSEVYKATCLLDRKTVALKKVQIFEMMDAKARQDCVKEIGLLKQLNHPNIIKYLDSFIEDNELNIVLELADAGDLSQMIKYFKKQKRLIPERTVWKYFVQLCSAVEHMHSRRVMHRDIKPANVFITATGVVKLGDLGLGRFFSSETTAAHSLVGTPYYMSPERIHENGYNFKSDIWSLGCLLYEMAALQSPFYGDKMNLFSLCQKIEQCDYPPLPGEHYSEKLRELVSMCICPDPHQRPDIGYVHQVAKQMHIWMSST

[3] = target: T2, Serine/threonine-protein kinase ICK (Homo sapiens) (UniProt Q9UPZ9); experiment: Selectivity interaction (KinomeScan (DiscoverX)) EUB0000092b ICK; conditions: at 10 µM
T2 sequence (whole entry): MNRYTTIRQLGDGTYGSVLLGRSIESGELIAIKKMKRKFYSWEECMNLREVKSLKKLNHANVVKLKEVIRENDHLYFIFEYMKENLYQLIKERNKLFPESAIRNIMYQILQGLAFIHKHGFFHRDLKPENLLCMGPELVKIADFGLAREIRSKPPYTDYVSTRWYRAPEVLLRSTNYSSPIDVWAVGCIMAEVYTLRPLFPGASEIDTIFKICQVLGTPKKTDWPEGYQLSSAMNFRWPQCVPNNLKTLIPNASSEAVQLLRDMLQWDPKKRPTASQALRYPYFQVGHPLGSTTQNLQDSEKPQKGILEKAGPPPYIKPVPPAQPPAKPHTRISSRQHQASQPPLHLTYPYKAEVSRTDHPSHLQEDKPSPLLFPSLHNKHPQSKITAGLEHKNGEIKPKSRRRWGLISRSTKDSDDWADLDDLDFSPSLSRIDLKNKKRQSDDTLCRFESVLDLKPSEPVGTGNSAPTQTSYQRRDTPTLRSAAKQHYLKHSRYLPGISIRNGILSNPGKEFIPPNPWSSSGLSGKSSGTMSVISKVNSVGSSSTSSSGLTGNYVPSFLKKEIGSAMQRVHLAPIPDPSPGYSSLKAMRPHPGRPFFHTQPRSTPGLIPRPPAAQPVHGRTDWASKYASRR

[4] = target: RAC-alpha serine/threonine-protein kinase (Homo sapiens, UniProt P31749)
RAC-alpha serine/threonine-protein kinase, sequence (P31749 whole entry): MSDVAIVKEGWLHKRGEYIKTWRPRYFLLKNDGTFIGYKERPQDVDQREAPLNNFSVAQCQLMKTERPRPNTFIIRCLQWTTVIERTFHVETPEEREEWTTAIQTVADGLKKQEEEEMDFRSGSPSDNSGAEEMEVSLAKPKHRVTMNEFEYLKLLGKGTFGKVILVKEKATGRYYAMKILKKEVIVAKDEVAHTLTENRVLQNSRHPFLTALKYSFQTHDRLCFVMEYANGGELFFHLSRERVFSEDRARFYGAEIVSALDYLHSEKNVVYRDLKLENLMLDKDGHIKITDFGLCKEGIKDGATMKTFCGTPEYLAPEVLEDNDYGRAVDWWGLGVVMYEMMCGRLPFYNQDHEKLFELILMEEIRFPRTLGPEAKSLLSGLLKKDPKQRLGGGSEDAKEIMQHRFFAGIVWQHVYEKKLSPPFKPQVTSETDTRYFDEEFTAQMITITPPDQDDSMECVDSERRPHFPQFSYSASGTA

[5] = target: Histamine H2 receptor (Homo sapiens) (UniProt P25021); experiment: Selectivity interaction (Panel of non-epigenetic targets (kinases, GPCRs, ion channels, and transporters, Eurofins) ) EUB0000271b HRH2; conditions: at 1 µM
Histamine H2 receptor (Homo sapiens), sequence (P25021 whole entry): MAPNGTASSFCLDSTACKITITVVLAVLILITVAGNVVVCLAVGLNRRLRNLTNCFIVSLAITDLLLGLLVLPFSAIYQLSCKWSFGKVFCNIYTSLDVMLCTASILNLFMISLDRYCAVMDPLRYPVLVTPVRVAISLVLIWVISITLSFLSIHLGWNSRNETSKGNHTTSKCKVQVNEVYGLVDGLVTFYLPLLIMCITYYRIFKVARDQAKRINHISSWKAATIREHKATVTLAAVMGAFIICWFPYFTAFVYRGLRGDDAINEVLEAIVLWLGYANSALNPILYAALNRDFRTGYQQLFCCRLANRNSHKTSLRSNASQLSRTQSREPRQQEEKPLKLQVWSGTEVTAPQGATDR

[6] = target: Transient receptor potential cation channel subfamily M member 6 (Homo sapiens) (UniProt Q9BX84); experiment: Selectivity interaction (KinomeScan (DiscoverX)) EUB0000618a TRPM6; conditions: at 10 µM
Transient receptor potential cation channel subfamily M member 6 (Homo sapiens), sequence (Q9BX84 whole entry): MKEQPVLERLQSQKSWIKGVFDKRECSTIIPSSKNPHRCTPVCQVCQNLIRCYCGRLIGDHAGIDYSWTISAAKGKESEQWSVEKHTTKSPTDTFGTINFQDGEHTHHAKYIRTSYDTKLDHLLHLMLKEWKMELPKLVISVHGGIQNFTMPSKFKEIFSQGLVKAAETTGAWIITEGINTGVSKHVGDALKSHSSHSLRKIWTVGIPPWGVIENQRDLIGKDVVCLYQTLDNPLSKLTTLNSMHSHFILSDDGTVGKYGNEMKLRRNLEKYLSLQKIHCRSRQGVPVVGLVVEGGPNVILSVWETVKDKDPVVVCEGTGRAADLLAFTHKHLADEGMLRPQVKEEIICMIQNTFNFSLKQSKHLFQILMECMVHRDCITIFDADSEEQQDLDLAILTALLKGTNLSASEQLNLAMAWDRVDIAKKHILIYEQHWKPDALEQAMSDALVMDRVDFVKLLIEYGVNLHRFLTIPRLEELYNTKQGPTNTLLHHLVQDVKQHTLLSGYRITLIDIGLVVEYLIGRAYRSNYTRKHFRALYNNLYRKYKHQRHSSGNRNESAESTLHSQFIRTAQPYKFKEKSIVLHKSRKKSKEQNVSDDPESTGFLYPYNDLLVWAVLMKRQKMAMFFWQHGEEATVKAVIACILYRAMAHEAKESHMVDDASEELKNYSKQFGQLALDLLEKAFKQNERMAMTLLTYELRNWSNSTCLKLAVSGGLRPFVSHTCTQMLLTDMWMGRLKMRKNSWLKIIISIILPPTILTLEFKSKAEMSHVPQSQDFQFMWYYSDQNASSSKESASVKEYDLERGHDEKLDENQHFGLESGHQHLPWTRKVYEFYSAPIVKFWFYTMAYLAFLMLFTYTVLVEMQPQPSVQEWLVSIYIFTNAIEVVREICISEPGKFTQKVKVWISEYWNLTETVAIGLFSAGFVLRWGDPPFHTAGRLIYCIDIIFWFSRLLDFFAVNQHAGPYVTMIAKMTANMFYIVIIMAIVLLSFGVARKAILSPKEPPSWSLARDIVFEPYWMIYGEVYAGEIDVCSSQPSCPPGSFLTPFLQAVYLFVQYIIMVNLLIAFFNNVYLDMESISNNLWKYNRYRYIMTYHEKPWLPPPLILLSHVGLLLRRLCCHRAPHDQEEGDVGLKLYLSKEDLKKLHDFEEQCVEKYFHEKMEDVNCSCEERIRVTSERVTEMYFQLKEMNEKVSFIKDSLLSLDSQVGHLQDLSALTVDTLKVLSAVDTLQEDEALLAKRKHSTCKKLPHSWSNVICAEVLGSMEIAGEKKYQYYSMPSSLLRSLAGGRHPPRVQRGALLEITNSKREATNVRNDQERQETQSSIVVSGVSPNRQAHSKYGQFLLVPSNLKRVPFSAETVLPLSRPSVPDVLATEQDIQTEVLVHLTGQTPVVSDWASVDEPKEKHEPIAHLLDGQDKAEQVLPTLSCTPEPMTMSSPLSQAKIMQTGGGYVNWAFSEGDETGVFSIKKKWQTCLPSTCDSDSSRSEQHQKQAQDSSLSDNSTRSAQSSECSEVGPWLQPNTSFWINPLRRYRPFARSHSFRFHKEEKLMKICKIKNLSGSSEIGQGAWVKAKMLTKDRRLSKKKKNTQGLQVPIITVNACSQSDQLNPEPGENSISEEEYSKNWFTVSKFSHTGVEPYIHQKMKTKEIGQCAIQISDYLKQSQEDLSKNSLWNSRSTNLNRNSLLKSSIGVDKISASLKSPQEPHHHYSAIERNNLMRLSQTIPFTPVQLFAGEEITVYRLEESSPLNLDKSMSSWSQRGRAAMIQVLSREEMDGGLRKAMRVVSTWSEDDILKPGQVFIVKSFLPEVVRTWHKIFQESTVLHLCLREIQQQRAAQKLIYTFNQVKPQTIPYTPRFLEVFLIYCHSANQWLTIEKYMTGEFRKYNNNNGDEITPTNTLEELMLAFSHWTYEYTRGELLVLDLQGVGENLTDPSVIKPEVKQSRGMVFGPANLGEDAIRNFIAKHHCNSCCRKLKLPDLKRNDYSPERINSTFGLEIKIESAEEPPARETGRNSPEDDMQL

[7] = target: T3, Serine/threonine-protein kinase STK11 (Homo sapiens) (UniProt Q15831); experiment: Selectivity interaction (ActivX KiNativ screen (ex vivo kinase selectivity in human PBMCs)) EUB0001619a STK11; format: cell-based; conditions: PBMC, at 1 µM
T3 sequence (whole entry): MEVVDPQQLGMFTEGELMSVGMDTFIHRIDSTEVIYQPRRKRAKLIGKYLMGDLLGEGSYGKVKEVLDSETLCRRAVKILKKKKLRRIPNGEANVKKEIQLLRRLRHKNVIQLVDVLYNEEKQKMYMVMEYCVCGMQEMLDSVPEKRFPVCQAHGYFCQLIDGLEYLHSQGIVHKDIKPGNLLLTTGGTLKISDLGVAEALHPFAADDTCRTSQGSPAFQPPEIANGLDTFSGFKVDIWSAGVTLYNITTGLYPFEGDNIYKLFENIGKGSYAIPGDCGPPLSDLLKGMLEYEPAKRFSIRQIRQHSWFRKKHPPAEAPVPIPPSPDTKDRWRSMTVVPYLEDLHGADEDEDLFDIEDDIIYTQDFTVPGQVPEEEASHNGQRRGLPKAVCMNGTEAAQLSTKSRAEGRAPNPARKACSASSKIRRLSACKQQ

`COc1cc(N(C)c2ccnc3ccc(C(F)(F)F)cc23)cc(OC)c1OC` gave a % binding [1] of 93%.
`CCC(=O)N1CCN(c2ccc(-n3c(=O)ccc4cnc5ccc(-c6cnc7ccccc7c6)cc5c43)cc2C(F)(F)F)CC1` was tested, and the % of control [2] was 99% and the % of control [3] was 100%.
In the case of `CCc1cccc(CC)c1NC(=O)c1nn(C)c2c1CCc1cnc(Nc3ccc(C(=O)NC4CCN(C)CC4)cc3OC(F)(F)F)nc1-2`, the pIC50 [4] was < 5.00.
Work on `Cc1cc(C)cc([C@@H]2c3cc(C)ccc3NC(=O)CN2C(=O)c2ccc(Br)s2)c1` yielded a % of inhibition [5] of -18%.
For `O[C@H]1CC[C@H](Nc2ncc3nc(Nc4c(F)cc(F)cc4F)n([C@H]4CCOC4)c3n2)CC1`, the % of control [6] was 100%.
In the case of `N#Cc1cccc(-c2c[nH]c3ncnc(N4CCOCC4)c23)c1`, the % of inhibition [7] was 17%.
